# Substitutions are numbered along the chain they refer to.
# How the values were obtained:
# Assay type in all cases: binding
# zebrafish NR2E3 = target: T1, zebrafish NR2E3 (Danio rerio, UniProt Q5U3F3); assay: visible absorbance titration
# T1 construct: MBP-DrNR2E3 LBD
# T1 sequence (Q5U3F3 178-419 limits assumed): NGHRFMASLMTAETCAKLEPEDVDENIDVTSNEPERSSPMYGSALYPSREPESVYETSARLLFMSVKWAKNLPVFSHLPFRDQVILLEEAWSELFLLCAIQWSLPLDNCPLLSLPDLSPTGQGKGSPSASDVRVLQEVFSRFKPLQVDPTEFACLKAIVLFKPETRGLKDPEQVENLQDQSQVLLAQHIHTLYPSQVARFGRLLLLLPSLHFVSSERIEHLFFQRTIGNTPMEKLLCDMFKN
# NR2E3 [1] = target: T2, NR2E3 (Homo sapiens, UniProt Q9Y5X4, R311Q); assay: visible absorbance titration
# T2 construct: MBP-NR2E3 LBD R311Q variant
# T2 sequence (Q9Y5X4 164-410 R311Q): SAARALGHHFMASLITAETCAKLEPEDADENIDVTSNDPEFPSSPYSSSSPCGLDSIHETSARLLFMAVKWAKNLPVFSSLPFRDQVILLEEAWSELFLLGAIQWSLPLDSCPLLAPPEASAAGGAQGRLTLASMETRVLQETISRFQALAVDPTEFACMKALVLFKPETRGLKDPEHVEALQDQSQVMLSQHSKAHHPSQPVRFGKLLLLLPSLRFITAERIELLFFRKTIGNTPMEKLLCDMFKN
# NR2E3 [2] = target: T3, NR2E3 (Homo sapiens, UniProt Q9Y5X4); assay: visible absorbance titration; also gel filtration co-purification with LC-MS
# T3 construct: MBP-NR2E3 LBD (amino acid residues 164–410 of 410 residue NR2E3)
# T3 sequence (Q9Y5X4 164-410): T2 sequence (Q9Y5X4 164-410 R311Q) with Q148R
smiles,measurement,setting,value
C=CC1=C(C)/C(=C/C2=NC(=C\c3[nH]c(/C=C4\NC(=O)C(C)=C4C=C)c(C)c3CCC(=O)O)/C(CCC(=O)O)=C2C)NC1=O [biliverdin],visible absorbance titration,zebrafish NR2E3,the spectrum of biliverdin showed changes similar to the one observed with human NR2E3^LBD
same,Kd,NR2E3 [1],9 µM
same,Kd,NR2E3 [2],0.2 µM

# From article PMC9068610, “Biliverdin regulates NR2E3 and zebrafish retinal photoreceptor development” (Scientific Reports, 2022)
